The source made the active and inactive calls. The calls are words filed in the database; no cut-off is given here. Where a SMILES comes first, the peptide text is derived from it.

As a reminder, the inhibition is the relative decrease from the control value, in per cent.

Series [1] is described as follows: Antioxidant activity assessed as DPPH free radical scavenging activity at 80 uM after 30 mins relative to control. The format is functional.
The nature of series [2]: Antioxidant activity assessed as ABTS radical scavenging activity at 80 uM after 10 mins relative to control. It counts as functional.
Series [3] is described as follows: Reducing power of the compound assessed as reducing Fe3+ power at 80 uM using K3Fe(CN)6 in pH 6.6 phosphate buffer relative to control.
The subject of series [4] is LAD2. The experiment in a line: Proinflammatory activity in human LAD2 cells assessed as increase in mast-cell degranulation by measuring beta-hexosaminidase release at 0.125 mM preincubated for 30 mins followed 4-nitrophenyl-N-acetyl-beta-D-glucosaminide substrate addition and measured after 90 mins by fluorescence-based microplate reader analysis relative to control. It counts as ADME. The note with it: lad2, 1.5 h, 125 µM.

Series [5] has as its system LAD2. The series can be described thus: Proinflammatory activity in human LAD2 cells assessed as increase in mast-cell degranulation by measuring beta-hexosaminidase release at 0.25 mM preincubated for 30 mins followed 4-nitrophenyl-N-acetyl-beta-D-glucosaminide substrate addition and measured after 90 mins by fluorescence-based microplate reader analysis relative to control. The format is ADME. The note with it: lad2, 1.5 h, 250 µM.

The target of series [6] is T1, Tyrosinase (Mus musculus) (UniProt P11344).
T1 sequence (whole entry): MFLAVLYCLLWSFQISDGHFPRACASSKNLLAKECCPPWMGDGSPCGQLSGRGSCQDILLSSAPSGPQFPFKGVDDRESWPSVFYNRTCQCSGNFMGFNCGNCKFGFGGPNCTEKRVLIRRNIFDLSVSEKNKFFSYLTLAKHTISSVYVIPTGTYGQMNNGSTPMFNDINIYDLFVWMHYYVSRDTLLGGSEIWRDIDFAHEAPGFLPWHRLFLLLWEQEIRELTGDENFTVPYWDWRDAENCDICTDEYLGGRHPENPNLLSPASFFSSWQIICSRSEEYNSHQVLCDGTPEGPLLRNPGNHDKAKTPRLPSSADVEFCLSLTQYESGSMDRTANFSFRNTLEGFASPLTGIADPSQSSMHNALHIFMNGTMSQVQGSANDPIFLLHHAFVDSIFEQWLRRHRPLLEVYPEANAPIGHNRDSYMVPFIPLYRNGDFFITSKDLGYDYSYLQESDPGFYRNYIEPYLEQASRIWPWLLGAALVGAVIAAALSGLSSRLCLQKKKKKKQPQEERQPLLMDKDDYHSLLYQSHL
The experiment in a line: Inhibition of TYR activity in mouse B16 cells assessed as melanin levels post exfoliation at 20 uM after 72 hrs by spectrophotometric analysis relative to control. Also noted: scale not given: the % may be the effect or the level left. The format is cell-based.

Series [7] deals with T1, Tyrosinase (Mus musculus). The series can be described thus: Inhibition of TYR activity in mouse B16 cells 20 uM using L-dopa as substrate after 72 hrs relative to control. It counts as cell-based.
Series [8] concerns B16. The series can be described thus: Downregulation of MITF protein expression in mouse B16 cells after 72 hrs by Western blot analysis. The format is functional, cell-based. On the technique in general: Immunoblotting shows a protein as a band on a membrane.
Series [9] addresses MAP kinase p38 (Mus musculus) (UniProt P47811+O08911+Q9WUI1+Q9Z1B7). The series can be described thus: Effect on p38 phosphorylation in mouse B16 cells up to 80 uM after 72 hrs by Western blot analysis. It counts as cell-based.
A short description of series [10]: Toxicity in Dunkin-Hartley guinea pig model of UVB-induced pigmentation assessed as abnormal morphological changes in epidermis at 1 mM to 2 mM administered topically 6 hrs before UV radiation every day for 2 weeks by Fontana-Masson-staining based assay. Also noted: species or system Cavia porcellus. The note with it: in vivo, topical_or_ocular, 1000 µM.
In series [11] the test system is Cavia porcellus. The experiment in a line: Protection against UVB-induced pigmentation in Dunkin-Hartley guinea pig assessed as increase in whitening at 1 to 2 mM using PG solvent administered topically post UV radiation for 5 days/week for two consecutive weeks for a total 10 days by Fontana-Masson-staining based assay. The format is functional, organism-based.

A short description of series [12]: Drug uptake in skin dermis of brown guinea pig at 2 mM dosed topically after 30 mins using FITC-labelled compound by H and E staining-based fluorescence microscopy. The note with it: in vivo, topical_or_ocular, 0.5 h, 2000 µM. The format is ADME, organism-based, Cavia porcellus.
A short description of series [13]: Drug uptake in skin basal layer of brown guinea pig at 2 mM dosed topically after 1 hr using FITC-labelled compound by H and E staining-based fluorescence microscopy. It counts as ADME, organism-based, Cavia porcellus. Conditions: in vivo, topical_or_ocular, 2000 µM.
The target of series [14] is T1, Tyrosinase (Mus musculus). The experiment in a line: Inhibition of TYR activity in mouse B16 cells assessed as reduction in melanin levels at 20 uM after 24 hrs by spectrophotometric analysis relative to control. It counts as cell-based.
For series [15], the target named is T2, Tyrosinase (Agaricus bisporus) (UniProt O42713).
T2 sequence (whole entry): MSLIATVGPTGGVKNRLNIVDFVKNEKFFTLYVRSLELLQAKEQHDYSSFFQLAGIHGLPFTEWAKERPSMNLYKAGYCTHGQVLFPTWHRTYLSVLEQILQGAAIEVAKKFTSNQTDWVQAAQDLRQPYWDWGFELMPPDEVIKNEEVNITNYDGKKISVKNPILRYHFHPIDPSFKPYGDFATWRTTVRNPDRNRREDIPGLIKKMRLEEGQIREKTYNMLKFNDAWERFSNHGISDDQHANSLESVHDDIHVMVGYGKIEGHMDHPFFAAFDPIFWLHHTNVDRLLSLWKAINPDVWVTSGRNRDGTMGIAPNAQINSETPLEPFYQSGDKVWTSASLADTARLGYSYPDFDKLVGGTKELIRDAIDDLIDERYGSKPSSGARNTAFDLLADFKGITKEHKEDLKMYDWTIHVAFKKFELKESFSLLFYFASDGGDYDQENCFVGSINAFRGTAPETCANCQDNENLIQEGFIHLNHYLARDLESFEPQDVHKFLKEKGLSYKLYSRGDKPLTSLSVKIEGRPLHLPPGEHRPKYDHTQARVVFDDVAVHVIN
The experiment in a line: Inhibition of mushroom tyrosinase using L-dopa as substrate assessed as reduction in L-dopa oxidation at IC50 by spectrophotometry.

As for `CC(C)[C@H](NC(=O)[C@H](CCCNC(=N)N)NC(=O)[C@H](Cc1ccccc1)NC(=O)[C@H](CS)NC(=O)[C@H](CCCNC(=N)N)NC(=O)[C@@H](N)[C@@H](C)O)C(=O)N[C@@H](CS)C(=O)N[C@@H](CO)C(=O)O` (H-TRCFRVCS-OH), the Activity in series [1] is 97%; in series [2], 63%; in series [3], 0.31; in series [4], 3.87%; in series [5] it was 7.19%; in series [6] it was 52.2%. Moreover, the Activity result in [10] is reported as “Non-Toxic”. In series [7], this compound returned an inhibition of 25.7%. In addition, the inhibition entry in series [8], in series [14] and in [15] was “Active” each time. In [9], the result was inactive. Further, the outcome in [11] was Active. Besides, the Drug uptake result in [12] and in series [13] was “Active” each time.

For the origin of these results see ChEMBL document CHEMBL4325834, “De Novo Molecular Design of a Novel Octapeptide That Inhibits In Vivo Melanogenesis and Has Great Transdermal Ability” (J Med Chem, 2018).
